Patent US20170065593A1, “Combination” (Novartis AG, priority 2009, published 2017)
Where two headings read alike, the source gives them in different places. Blank lines part the entries; values can stand above or below the molecule they belong to.

Tests used:
Assay in all cases: Cell growth inhibition assay (Cell Titer Glo, 3 days)
Format in all cases: cell-based, Human
[1] = system: A427; conditions: A427 (KRAS_G12D), single agent, mean ± std
Description: (§1) Human tumor cell lines from lung cancer, A427, A549, Calu1, Calu3, Calu6, COR-L23, HOP62, MV522, NCI-H1155, NCI-H1299, NCI-H1355, NCI-H1395, NCI-H157, NCI-H1573, NCI-H1666, NCI-1755, NCI-H1792, NCI-2009, NCI-H2030, NCI-H2122, NCI-H2291, NCI-H23, NCI-H2347, NCI-H358, NCI-H441, NCI-H460, NCI-H650, NCI-H727, SW1573 and SW900 were cultured in RPMI 1640 medium containing 10% fetal bovine serum (FBS). Cell line mutation data was collated for the status for the RAS and RAF genes. The data source is the cancer cell line mutation screening data published as part of the Catalog of Somatic Mutations in Cancer database (COSMIC) (Bamford S. et al. Br. J. Cancer. 2004. 91:355-58) and/or in house DNA sequencing.
(§2) Cells were seeded in a 96-well tissue culture plate (NUNC 136102) of RPMI medium containing 10% FBS at 500-2,000 cells per well. Approximately 24 hours after plating, cells were exposed to ten, two-fold or three-fold serial dilutions of either Compound A or B or the combination of the two agents at a 10:1 molar ratio (Compounds A and B respectively). The final dosing concentration range for Compound A was 2-1000 nM and was 0.2-100 nM for Compound B. Cells were incubated in the presence of compounds for 3 days. ATP levels were determined by adding Cell Titer Glo® (Promega) according to the manufacturer's protocol. Briefly, Cell Titer Glo® was added to each plate, incubated for 20 minutes then luminescent signal was read on the SpectraMax L plate reader with a 0.5 sec integration time. All assays were run at least in duplicate.
(§3) Inhibition of cell growth was estimated after treatment with compound or combination of compounds for three days and comparing the signal to cells treated with vehicle (DMSO). Cell growth was calculated relative to vehicle (DMSO) treated control wells. Concentration of compound that inhibits 50% of control cell growth (IC50) was back-interpolated when y=50% of DMSO treated control wells using nonlinear regression with the equation: […]

[2] = system: A549; conditions: A549 (KRAS_G12S), single agent, mean ± std
Description: as §1, §2, §3

[3] = system: CORL23; conditions: CORL23 (KRAS_G12V), single agent, mean ± std
Description: as §1, §2, §3

[4] = system: Calu6; conditions: Calu6 (KRAS_Q61K), single agent, mean ± std
Description: as §1, §2, §3

[5] = system: MV522; conditions: MV522 (BRAF_V600E), single agent, mean ± std
Description: as §1, §2, §3

[6] = system: NCI-H1155; conditions: NCI-H1155 (KRAS_Q61H), single agent, mean ± std
Description: as §1, §2, §3

[7] = system: NCI-H1299; conditions: NCI-H1299 (NRAS_Q61K), single agent, mean ± std
Description: as §1, §2, §3

[8] = system: NCI-H1355; conditions: NCI-H1355 (KRAS_G13C), single agent, mean ± std
Description: as §1, §2, §3

[9] = system: NCI-H1573; conditions: NCI-H1573 (KRAS-G12A), single agent, mean ± std
Description: as §1, §2, §3

[10] = system: NCI-H157; conditions: NCI-H157 (KRAS_G12R), single agent, mean ± std
Description: as §1, §2, §3

[11] = system: NCI-H1666; conditions: NCI-H1666 (BRAF_G466V), single agent, mean ± std
Description: as §1, §2, §3

[12] = system: NCI-H1792; conditions: NCI-H1792 (KRAS_G12C), single agent, mean ± std
Description: as §1, §2, §3

[13] = system: NCI-H2009; conditions: NCI-H2009 (KRAS-G12A), single agent, mean ± std
Description: as §1, §2, §3

[14] = system: NCI-H2030; conditions: NCI-H2030 (KRAS_G12C), single agent, mean ± std
Description: as §1, §2, §3

[15] = system: NCI-H2122; conditions: NCI-H2122 (KRAS_G12C), single agent, mean ± std
Description: as §1, §2, §3

[16] = system: NCI-H2347; conditions: NCI-H2347 (RAS_H, N_Q61R), single agent, mean ± std
Description: as §1, §2, §3

[17] = system: NCI-H441; conditions: NCI-H441 (KRAS_G12V), single agent, mean ± std
Description: as §1, §2, §3

[18] = system: NCI-H460; conditions: NCI-H460 (KRAS_Q61H), single agent, mean ± std
Description: as §1, §2, §3

[19] = system: NCI-H650; conditions: NCI-H650 (KRAS_Q61L), single agent, mean ± std
Description: as §1, §2, §3

[20] = system: NCI-H727; conditions: NCI-H727 (KRAS_G12V), single agent, mean ± std
Description: as §1, §2, §3

[21] = read-out: IC50 Single Agent Compound A
[22] = Homo sapiens, 72 h, read-out: IC50 Single Agent Compound B

Molecule: N-{3-[3-cyclopropyl-5-(2-fluoro-4-iodo-phenylamino)6,8-dimethyl;-2,4,7-trioxo-3,4,6,7-tetrahydro-2H-pyrido[4,3-d]pyrimidin-1-yl]phenyl}acetamide [Compound A]
- IC50 [1, 21]: 95 ± 68 nM
- IC50 [2, 21]: 32 ± 9 nM
- IC50 [3, 21]: 989 ± 86 nM
- IC50 [4, 21]: 5 nM
- IC50 [5, 21]: 1 nM
- IC50 [6, 21]: > 1000 nM
- IC50 [7, 21]: 277 ± 92 nM
- IC50 [8, 21]: 67 ± 24 nM
- IC50 [9, 21]: 82 ± 11 nM
- IC50 [10, 21]: > 1000 nM
- IC50 [11, 21]: 44 ± 46 nM
- IC50 [12, 21]: 59 ± 23 nM
- IC50 [13, 21]: 204 ± 78 nM
- IC50 [14, 21]: > 1000 nM
- IC50 [15, 21]: 5 ± 1 nM
- IC50 [16, 21]: 7 ± 2 nM
- IC50 [17, 21]: > 1000 nM
- IC50 [18, 21]: 37 ± 11 nM
- IC50 [19, 21]: 4 ± 2 nM
- IC50 [20, 21]: 3 ± 1 nM

- IC50 [2, 22]: 3 ± 3 nM
- IC50 ([4]; Homo sapiens, Calu-6, 72 h, read-out: IC50 Single Agent Compound B): > 100 nM
- IC50 [6, 22]: > 100 nM
- IC50 [7, 22]: > 100 nM
- IC50 [8, 22]: > 100 nM
- IC50 [9, 22]: > 100 nM
- IC50 [10, 22]: > 100 nM
- IC50 [11, 22]: > 100 nM
- IC50 [12, 22]: > 100 nM
- IC50 [13, 22]: > 100 nM
- IC50 [14, 22]: > 10 nM
- IC50 [15, 22]: 97 ± 37 nM
- IC50 [16, 22]: > 100 nM
- IC50 [17, 22]: > 100 nM
- IC50 [18, 22]: > 70 nM
- IC50 [19, 22]: > 100 nM
- IC50 [20, 22]: > 100 nM
Molecule: CO[C@H]1C[C@@H]2CC[C@@H](C)[C@@](O)(O2)C(=O)C(=O)N2CCCC[C@H]2C(=O)O[C@H]([C@H](C)C[C@@H]2CC[C@@H](OCCO)[C@H](OC)C2)CC(=O)[C@H](C)/C=C(\C)[C@@H](O)[C@@H](OC)C(=O)[C@H](C)C[C@H](C)/C=C/C=C/C=C/1C [Compound B, everolimus]
- IC50 ([1]; Homo sapiens, A-427, 72 h, read-out: IC50 Single Agent Compound B): > 100 nM
- IC50 ([3]; Homo sapiens, COR-L23, 72 h, read-out: IC50 Single Agent Compound B): > 100 nM
- IC50 [5, 22]: > 100 nM
